From patent publication US8557811B2, “Dual-color imaging method of sodium/calcium activities using two-photon fluorescent probes and preparation method of two-photon fluorescent probes” (Ajou University Industry—Academic Cooperation Foundation, priority 2010, dated 2013)
Values joined by “and” are separate entries in the source; they are usually repeats but may differ in a detail not shown here. Equal entries are not always repeated.

Columns and labels:
[1] = Two-photon absorption cross section by femtosecond fluorescence spectroscopy; assay type: physicochemical; conditions: for λ^(2)max two-photon excitation wavelength: with cation (BCa1 + Ca2+, ANa1 + Na+); for δΦ two-photon operational cross section: with cation (BCa1: MOPS buffer with excess Ca2+; ANa1 + Na+), error range ±15%
Protocol: Two-photon operational emission δΦ of BCa1 in the MOPS buffer containing excess Ca^2+ was 150 GM at 780 nm, 3- to 5-fold improved over Calcium-Green-Ca^2+ or Fura-2-Ca^2+ (see FIG. 7). Thus, it can be seen that staining of cells with BCa1 can provide brighter TPM images as compared to other commercially available probes.
TPA cross section (6) was measured by femtosecond (fs) fluorescence spectroscopy. BCa1 was dissolved in 30 mM MOPS buffer (2.5 mM CaCl2, 100 mM KCl, pH 7.2) to a concentration of 5.0×10^−6 M, and two-photon excited fluorescence (TPEF) was measured at 740 to 940 nm using fluorescein (8.0×10^−6M, pH=11). TPEF intensity of reference and sample was determined at the same excitation wavelength. TPA cross section was calculated by Equation 1. δ=δr(Ssφrfrcr)/(Srφsfscs) [Equation 1]
In Equation 1, s and r respectively stand for sample and reference molecules, S represents the intensity of a signal collected by the CCD detector, Φ represents the fluorescence quantum yield, f represents the overall fluorescence collection efficiency of the experimental apparatus, c represents molecular density in the solution, and δr represents the TPA cross section of reference molecules.

[2] = Spectroscopic measurements (absorption, emission, fluorescence quantum yield); assay type: physicochemical; conditions: for Φ fluorescence photon efficiency: error range ±10%
Protocol: Absorption spectra were measured using a Hewlett-Packard 8453 diode array spectrophotometer, and fluorescence spectra were measured using an Amico-Bowman series 2 emission spectrometer having 1 cm standard quartz cell. Fluorescence quantum yield was determined using coumarin 307 (Φ=0.95 in MeOH) according to a previously known method.
Normalized absorption spectra of BCa1 in 1,4-dioxane, EtOH, DMF and H2O are shown in FIG. 2 (a), and normalized emission spectra of BCa1 in 1,4-dioxane, EtOH, DMF and H2O are shown in FIG. 2 (b).

[3] = Fluorescence response of ANa1 to Na+ in buffer; assay type: binding
[4] = in MeOH; cited from earlier work
[5] = Relative fluorescence intensity for various cations; conditions: 1 μM BCa1
Protocol: (§1) Relative fluorescence intensity of 1 μM BCa1 for various cations are shown in FIG. 6 (a), and the effect of pH on one-photon fluorescence intensity of BCa1 is shown in FIG. 6 (b). […] Thus, the probe allows selective detection of Ca^2+ without minimized interference from other biologically relevant cations.

[6] = Fluorescence titration with free Ca2+ in MOPS buffer (one-photon and two-photon); assay type: binding
Protocol: This is caused by the blocking of photo-induced electron transfer (PET) resulting from complexation with the metal ions.
One-photon absorption curves of 1 μM BCa1 (30 mM MOPS, 100 mM KCl, pH 7.2) complex in the presence of free Ca^2+ are shown in FIG. 5 (a), one-photon and two-photon fluorescence titration curves are shown in FIG. 5 (b), and one-photon and two-photon Hill curves are shown in FIG. 5 (c).
The dissociation constants of BCa1 for the one-photon and two-photon processes (K^OPd and K^TPd) were calculated from the fluorescence titration curves of FIG. 5 (b).

[7] = Water solubility from fluorescence intensity versus dye concentration; assay type: physicochemical; conditions: H2O with DMSO at 0.20; highest concentration in the linear region; excitation 360 nm
Protocol: A stock solution (1.0×10^−2M) was prepared by dissolving the dye (BCa1) in DMSO. The solution was diluted (to 6.0×10^−3 to 6.0×10^−5 M) and transferred to a cuvette holding H2O (3.0 mL) using a microsyringe. In all cases, the concentration of DMSO in H2O was maintained at 0.20. […] The highest concentration in the linear region was determined as the solubility of BCa1, which was about 5.0 μM in water, being sufficient to stain cells.
One-photon fluorescence spectra of BCa1 are shown in FIG. 1 (a), and the fluorescence intensity of BCa1 in H2O depending on concentrations is shown in FIG. 1 (b). Excitation wavelength was 360 nm.

[8] = One-photon fluorescence of BCa1 with free Ca2+ in LUVs; assay type: binding; conditions: LUVs of DOPC/sphingomyelin/CHL (1:1:1, raft mixture), free Ca2+ 2.5 mM, 25±0.5° C.
Protocol: LUVs for the measurement of one-photon and two-photon spectra were prepared from a hydrated suspension of multilamellar vesicles by means of extrusion. Lipids were dissolved in CHCl3/MeOH (95/5 vol %) and then dried under N2 flow in vacuum. The resulting film was hydrated in MOPS buffer (30 mM MOPS, 100 mM KCl, pH 7.2) by shaking at 60° C. until the suspension became homogeneous. The mixture was subjected to 3 freeze-thaw cycles, and LUVs were extruded therefrom by passing through a membrane having 100 nm pores (Avanti Polar Lipids). To stain the vesicles, BCa1 dissolved in DMSO was added and then 30 minutes was allowed to pass. The proportion of the vesicles to the probe was 300:1. Temperature was measured using a digital thermometer having a precision of 0.1° C.
One-photon fluorescence spectra of complexes of free Ca^2+ (0 to 2.5 mM) and 1 μM BCa1 for LUVs composed of DOPC/sphingomyelin/cholesterol (1:1:1, raft mixture) are shown in FIG. 8 (a), and Hill curves are shown in FIG. 8 (b).
Normalized emission spectra of BCa1 containing free Ca^2+ (2.5 mM) in LUVs composed of DPPC/CHL (black curve), DOPC/sphingomyelin/CHL (1:1:1, raft mixture, blue curve) and DOPC (pink curve) at 25±0.5° C. are shown in FIG. 9 (a), and normalized emission spectra of BCa1 in HeLa cells are shown in FIG. 9 (b). […]

[9] = Two-photon measurement in BCa1-labeled HeLa cells; assay type: cell-based
Protocol: HeLa cells were cultured in Dulbecco's modified Eagle's medium (DMEM; Gibco) supplemented with heat-inactivated 10% (v/v) fetal bovine serum (FBS; Gibco), 100 units/mL penicillin and 100 μg/mL streptomycin. The cells were grown under a humidified environment at 37° C. with air/CO2=95:5. Four days before imaging, the cells were harvested with a trypsin-EDTA solution and were transferred to a glass-bottomed dish (MatTek) with […]. The cells were treated at 37° C. for 20 minutes with 2 μM ANa1, and then loaded with 0.5 μM BCa1 at room temperature. 10 minutes later, the cells were imaged after washing 2 times with a reduced calcium-balanced salt solution (RCBSS; 127 mM NaCl, 3.8 mM KCl, 1.2 mM KH2PO4, 0.8 mM MgCl2, 5 mM glucose and 10 mM HEPES buffer).
Two-photon fluorescence microscopic images of the probe-labeled HeLa cells and tissues were obtained using spectral confocal and multiphoton microscopes (Leica TCS SP2).

[10] = Effect of pH on one-photon fluorescence intensity; assay type: physicochemical
Protocol: as §1

[11] = with cation (BCa1 + Ca2+, ANa1 + Na+)
[12] = two-photon process (value in parentheses)

| λ^(2)max two-photon excitation wavelength [1] | δΦ two-photon operational cross section [1] | λ^(1)max one-photon absorption wavelength ([2]; probe without added cation) | λ^flmax one-photon emission wavelength ([2]; probe without added cation) | Φ fluorescence photon efficiency ([2]; probe without added cation) | λ^(1)max one-photon absorption wavelength [2, 11] | λ^flmax one-photon emission wavelength [2, 11] | Φ fluorescence photon efficiency [2, 11] | solubility of BCa1 in water [7] | maximum emissions of the two Gaussian curves fitted to the emission spectrum [8] | maximum emissions of the two Gaussian curves fitted to the emission spectrum [9] | effect of pH on one-photon fluorescence intensity [10] | SMILES | FEF fluorescence enhancement factor (F − Fmin)/Fmin ([3]; one-photon process) | FEF fluorescence enhancement factor (F − Fmin)/Fmin [3, 12] | Φ fluorescence quantum yield of the reference [4] | fluorescence response to Fe^2+, Cu^2+ and Co^2+ [5] | fluorescence response to Mg^2+, Zn^2+ and Mn^2+ [5] | FEF fluorescence enhancement factor (F − Fmin)/Fmin ([6]; one-photon process) | FEF fluorescence enhancement factor (F − Fmin)/Fmin [6, 12] |
| --- | --- | --- | --- | --- | --- | --- | --- | --- | --- | --- | --- | --- | --- | --- | --- | --- | --- | --- | --- |
| 780 nm | 95 GM | 367 nm | 500 nm | 0.08 | 367 nm | 500 nm | 0.65 | – | – | – | – | COc1ccccc1N1CCOCCOCCN(c2ccc(NC(=O)CN(C)c3ccc4cc(C(C)=O)ccc4c3)cc2OC)CCOCC1 [ANa1, reference compound] | 8(8) | 8(8) | – | – | – | – | – |
| – | – | – | – | – | – | – | – | – | – | – | – | CCNc1cc2oc(=O)cc(C(F)(F)F)c2cc1C [coumarin 307] | – | – | 0.95 | – | – | – | – |
| 780 nm | 150 GM | 360 nm | 470 nm | 0.07 | 360 nm | 470 nm | 0.98 | about 5.0 μM | 436 nm and 467 nm | 430 nm and 460 nm | not affected by pH | CN(CC(=O)Nc1ccc(N(CC(=O)O)CC(=O)O)c(OCC(=O)N2CCOCC2)c1)c1ccc2cc(-c3nc4ccccc4o3)ccc2c1 [BCa1] | – | – | – | no response at all | weak responses | 13 | 14 |
